Experimental data as given in US11135234B2, “Effective aminoglycoside antibiotic for multidrug-resistant bacteria” (MICROBIAL CHEMISTRY RESEARCH FOUNDATION, priority 2015, dated 2021).
In brackets after ≈: the same amount, converted by molar mass.

Key:
[1] = test system: K. pneumoniae ATCC BAA-1705; experiment: MIC, agar plate dilution method, K. pneumoniae ATCC BAA-1705; assay type: cell-based, Klebsiella pneumoniae; conditions: K. pneumoniae ATCC BAA-1705, KPC-producing strain
In short: (§1)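 Strains were tested on agar plates containing diluted compound, and the MIC (μg/mL) was recorded according to the Japan Society of Chemotherapy protocol.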

[2] = test system: P. aeruginosa MSC17707; experiment: MIC, agar plate dilution method, P. aeruginosa MSC17707; assay type: cell-based, Pseudomonas aeruginosa; conditions: P. aeruginosa MSC17707, AMK-resistant
In short: as §1

[3] = test system: E. faecium ATCC19434; experiment: MIC, agar plate dilution method, E. faecium ATCC19434; assay type: cell-based, Enterococcus faecium; conditions: E. faecium ATCC19434
In short: as §1

[4] = test system: S. marcescens GN6944; experiment: MIC, agar plate dilution method, S. marcescens GN6944; assay type: cell-based, Serratia marcescens; conditions: S. marcescens GN6944, GM-resistant
In short: as §1

[5] = test system: S. aureus RN4220/pMS520; experiment: MIC, agar plate dilution method, S. aureus RN4220/pMS520; assay type: cell-based, Staphylococcus aureus; conditions: S. aureus RN4220/pMS520, MRSA
In short: as §1

[6] = test system: S. marcescens TH-0447; experiment: MIC, agar plate dilution method, S. marcescens TH-0447; assay type: cell-based, Serratia marcescens; conditions: S. marcescens TH-0447, AMK-resistant
In short: as §1

[7] = test system: P. aeruginosa PAO1/GN315; experiment: MIC, agar plate dilution method, P. aeruginosa PAO1/GN315; assay type: cell-based, Pseudomonas aeruginosa; conditions: P. aeruginosa PAO1/GN315, AMK-resistant
In short: as §1

[8] = test system: E. coli JM109/pMW218; experiment: MIC, agar plate dilution method, E. coli JM109/pMW218; assay type: cell-based, Escherichia coli; conditions: E. coli JM109/pMW218, Sensitive bacterium
In short: as §1

[9] = test system: K. pneumoniae ATCC BAA-2146; experiment: MIC, agar plate dilution method, K. pneumoniae ATCC BAA-2146; assay type: cell-based, Klebsiella pneumoniae; conditions: K. pneumoniae ATCC BAA-2146, NDM-producing strain
In short: as §1

[10] = test system: S. aureus RN4220; experiment: MIC, agar plate dilution method, S. aureus RN4220; assay type: cell-based, Staphylococcus aureus; conditions: S. aureus RN4220, Sensitive bacterium
In short: as §1

[11] = test system: P. aeruginosa MSC01035; experiment: MIC, agar plate dilution method, P. aeruginosa MSC01035; assay type: cell-based, Pseudomonas aeruginosa; conditions: P. aeruginosa MSC01035, ABK-resistant
In short: as §1

[12] = test system: A. baumannii ATCC BAA-1710; experiment: MIC, agar plate dilution method, A. baumannii ATCC BAA-1710; assay type: cell-based, Acinetobacter baumannii; conditions: A. baumannii ATCC BAA-1710, MDRA
In short: as §1

[13] = test system: S. aureus MF490; experiment: MIC, agar plate dilution method, S. aureus MF490; assay type: cell-based, Staphylococcus aureus; conditions: S. aureus MF490, MRSA
In short: as §1

[14] = test system: P. aeruginosa PAO1; experiment: MIC, agar plate dilution method, P. aeruginosa PAO1; assay type: cell-based, Pseudomonas aeruginosa; conditions: P. aeruginosa PAO1, Sensitive bacterium
In short: as §1

Structure (SMILES) | minimal inhibitory concentration (MIC) [1] [µg/mL] | minimal inhibitory concentration (MIC) [2] [µg/mL] | minimal inhibitory concentration (MIC) [3] [µg/mL] | minimal inhibitory concentration (MIC) [4] [µg/mL] | minimal inhibitory concentration (MIC) [5] [µg/mL] | minimal inhibitory concentration (MIC) [6] [µg/mL] | minimal inhibitory concentration (MIC) [7] [µg/mL] | minimal inhibitory concentration (MIC) [8] [µg/mL] | minimal inhibitory concentration (MIC) [9] [µg/mL] | minimal inhibitory concentration (MIC) [10] [µg/mL] | minimal inhibitory concentration (MIC) [11] [µg/mL] | minimal inhibitory concentration (MIC) [12] [µg/mL] | minimal inhibitory concentration (MIC) [13] [µg/mL] | minimal inhibitory concentration (MIC) [14] [µg/mL]
CNC1C(OC2OC(CO)C(N)C(O)C2O)OC2CC(N)C(OC3C(N)CC(N)C(O)C3F)OC2C1O (stereo not drawn) [Compound B7, 5-deoxy-5-epi-5-fluoroapramycin] | 2 (≈ 3.69 µM) | 8 (≈ 14.8 µM) | 32 (≈ 59.1 µM) | 8 (≈ 14.8 µM) | 4 (≈ 7.39 µM) | 16 (≈ 29.5 µM) | 8 (≈ 14.8 µM) | 1 (≈ 1.85 µM) | 2 (≈ 3.69 µM) | 4 (≈ 7.39 µM) | 8 (≈ 14.8 µM) | 8 (≈ 14.8 µM) | 16 (≈ 29.5 µM) | 4 (≈ 7.39 µM)
CN[C@@H]1[C@@H](O[C@H]2O[C@H](CO)[C@@H](N)[C@H](O)[C@H]2O)O[C@H]2C[C@@H](N)[C@@H](O[C@@H]3[C@@H](N)C[C@@H](N)C[C@@H]3O)O[C@@H]2[C@@H]1O [Compound C6, 6-deoxy-5-epiapramycin] | 2 (≈ 3.82 µM) | 8 (≈ 15.3 µM) | 16 (≈ 30.6 µM) | 4 (≈ 7.64 µM) | 4 (≈ 7.64 µM) | 8 (≈ 15.3 µM) | 4 (≈ 7.64 µM) | 1 (≈ 1.91 µM) | 1 (≈ 1.91 µM) | 4 (≈ 7.64 µM) | 8 (≈ 15.3 µM) | 8 (≈ 15.3 µM) | 8 (≈ 15.3 µM) | 4 (≈ 7.64 µM)
CNC1C(OC2OC(CO)C(N)C(O)C2O)OC2CC(N)C(OC3C(N)CC(N)CC3F)OC2C1O (centres unmarked) [Compound C8, 5,6-dideoxy-5-fluoroapramycin] | 1 (≈ 1.9 µM) | 4 (≈ 7.61 µM) | 16 (≈ 30.4 µM) | 4 (≈ 7.61 µM) | 2 (≈ 3.81 µM) | 8 (≈ 15.2 µM) | 4 (≈ 7.61 µM) | 1 (≈ 1.9 µM) | 1 (≈ 1.9 µM) | 2 (≈ 3.81 µM) | 8 (≈ 15.2 µM) | 8 (≈ 15.2 µM) | 8 (≈ 15.2 µM) | 4 (≈ 7.61 µM)
CNC1C(OC2OC(CO)C(N)C(O)C2O)OC2CC(N)C(OC3C(N)CC(N)CC3N)OC2C1O (centres unmarked) [Compound C11, 5-amino-5,6-dideoxyapramycin] | 4 (≈ 7.65 µM) | 16 (≈ 30.6 µM) | 32 (≈ 61.2 µM) | 16 (≈ 30.6 µM) | 8 (≈ 15.3 µM) | 16 (≈ 30.6 µM) | 16 (≈ 30.6 µM) | 2 (≈ 3.83 µM) | 4 (≈ 7.65 µM) | 8 (≈ 15.3 µM) | 32 (≈ 61.2 µM) | 16 (≈ 30.6 µM) | 16 (≈ 30.6 µM) | 16 (≈ 30.6 µM)
CNC1C(OC2OC(CO)C(N)C(O)C2O)OC2CC(N)C(OC3C(N)CC(N)C(O)C3N)OC2C1O (centres unmarked) [Compound D2, 5-amino-5-deoxy-5-epiapramycin] | 2 (≈ 3.71 µM) | 8 (≈ 14.9 µM) | 32 (≈ 59.4 µM) | 4 (≈ 7.43 µM) | 4 (≈ 7.43 µM) | 8 (≈ 14.9 µM) | 4 (≈ 7.43 µM) | 2 (≈ 3.71 µM) | 2 (≈ 3.71 µM) | 4 (≈ 7.43 µM) | 4 (≈ 7.43 µM) | 8 (≈ 14.9 µM) | 8 (≈ 14.9 µM) | 4 (≈ 7.43 µM)
CN[C@@H]1[C@@H](O[C@H]2O[C@H](CO)[C@@H](N)[C@H](O)[C@H]2O)O[C@H]2C[C@@H](N)[C@@H](O[C@H]3[C@H](N)[C@@H](O)[C@H](N)C[C@@H]3N)O[C@@H]2[C@@H]1O [Compound E3, 5-amino-5-deoxyapramycin] | 4 (≈ 7.43 µM) | 16 (≈ 29.7 µM) | 64 (≈ 119 µM) | 16 (≈ 29.7 µM) | 8 (≈ 14.9 µM) | 16 (≈ 29.7 µM) | 16 (≈ 29.7 µM) | 4 (≈ 7.43 µM) | 4 (≈ 7.43 µM) | 8 (≈ 14.9 µM) | 16 (≈ 29.7 µM) | 16 (≈ 29.7 µM) | 16 (≈ 29.7 µM) | 16 (≈ 29.7 µM)
CN[C@@H]1[C@@H](O[C@H]2O[C@H](CO)[C@@H](N)[C@H](O)[C@H]2O)O[C@H]2C[C@@H](N)[C@@H](O[C@H]3[C@@H](F)[C@H](N)[C@H](N)C[C@@H]3N)O[C@@H]2[C@@H]1O [Compound F3, 6-amino-5,6-dideoxy-5,6-diepi-5-fluoroapramycin] | 4 (≈ 7.4 µM) | 16 (≈ 29.6 µM) | 64 (≈ 118 µM) | 16 (≈ 29.6 µM) | 8 (≈ 14.8 µM) | 16 (≈ 29.6 µM) | 16 (≈ 29.6 µM) | 8 (≈ 14.8 µM) | 4 (≈ 7.4 µM) | 8 (≈ 14.8 µM) | 32 (≈ 59.2 µM) | 16 (≈ 29.6 µM) | 32 (≈ 59.2 µM) | 16 (≈ 29.6 µM)
